Experimental data reported in article PMC8226839, “New Perspectives in the Antimicrobial Activity of the Amphibian Temporin B: Peptide Analogs Are Effective Inhibitors of Candida albicans Growth” (Journal of Fungi, 2021).
Square brackets hold non-standard residues; d marks the D form. Peptide text beside a SMILES is read from it.

Tested on: sheep erythrocytes
Details: 50 μg per disk, Columbia blood agar plates, 37 °C, 24 h

Row | Compound | hemolysis
1 | CC[C@H](C)[C@H](NC(=O)[C@@H]1CCCN1C(=O)[C@H](CC(C)C)NC(=O)[C@H](CC(C)C)NC(=O)[C@@H](CCCCN)NC(=O)[C@H](N)CCCCN)C(=O)N[C@H](C(=O)N[C@H](CCCCN)C(=O)N[C@@H](CC(N)=O)C(=O)N[C@@H](CC(C)C)C(=O)N[C@@H](CC(C)C)C(=O)N[C@H](CCCCN)C(=O)N[C@@H](CO)C(=O)N[C@@H](CC(C)C)C(=O)N[C@@H](CC(C)C)C(N)=O)C(C)C [D-Lys_TB_KKG6K] (H-[dK][dK]LLPIV[dK]NLL[dK]SLL-NH2) | did not induce the hemolysis
2 | CC[C@H](C)[C@H](NC(=O)[C@@H]1CCCN1C(=O)[C@H](CC(C)C)NC(=O)[C@H](CC(C)C)NC(=O)[C@H](CCCCN)NC(=O)[C@@H](N)CCCCN)C(=O)N[C@H](C(=O)N[C@@H](CCCCN)C(=O)N[C@@H](CC(N)=O)C(=O)N[C@@H](CC(C)C)C(=O)N[C@@H](CC(C)C)C(=O)N[C@@H](CCCCN)C(=O)N[C@@H](CO)C(=O)N[C@@H](CC(C)C)C(=O)N[C@@H](CC(C)C)C(N)=O)C(C)C [TB_KKG6K] (H-KKLLPIVKNLLKSLL-NH2) | did not induce the hemolysis
